How the values were obtained:
Felis catus [1] = assay: In vivo inhibition of beta-2 adrenergic receptor in cat assessed as inhibition of isoproterenol-induced vasodepressor response at ED50 administered as 30 mins of infusion measured at 30 mins relative to control; type: functional
Felis catus [2] = assay: In vivo inhibition of beta-1 adrenergic receptor in cat assessed as inhibition of isoproterenol-induced tachycardia administered as 30 mins of infusion measured at 30 mins by cardiotachometer; type: functional; conditions: 0.5 h

Compound | inhibition (INH) (Felis catus [1]) | ED50 (Felis catus [2])
C=CCc1cc(NC(=O)NCC)ccc1OCC(O)CNC1CC1 (centres undefined) | 37% | 1.14 mg/kg
CCNC(=O)Nc1ccc(OCC(O)CNC(C)COP)c(C)c1 (centres undefined) | 18% | 0.885 mg/kg
CCNC(=O)Nc1ccc(OCC(O)CNC(C)C)c(Br)c1 (centres undefined) | 19% | 0.069 mg/kg
CCCCCCNC(=O)Nc1ccc(OCC(O)CNC(C)C)c(C)c1 (centres undefined) | 19% | 0.189 mg/kg
C=CCc1cc(NC(=O)NCC)ccc1OCC(O)CNC(C)(C)C (centres undefined) | 30% | 0.038 mg/kg
CC(=O)Nc1ccc(OCC(O)CNC(C)C)cc1 (centres undefined) [PRACTOLOL] | 8% | 0.167 mg/kg
CC(C)NCC(O)COc1cccc(NC(N)=O)c1 (centres undefined) | 58% | 0.028 mg/kg
C=CCNC(=O)Nc1ccc(OCC(O)CNC(C)(C)C)cc1 (centres undefined) | 6% | 0.089 mg/kg
CCCCNC(=O)Nc1ccc(OCC(O)CNC(C)(C)C)c(C)c1 (centres undefined) | 11% | 0.012 mg/kg
C=CCc1cc(NC(=O)NC)ccc1OCC(O)CNC(C)(C)C (centres undefined) | 74% | 0.056 mg/kg
CCCNC(=O)Nc1ccc(OCC(O)CNC(C)C)cc1 (centres undefined) | 0% | 0.147 mg/kg
CCNC(=O)Nc1ccc(OCC(O)CNC(C)C)c(CC)c1 (centres undefined) | 33% | 0.118 mg/kg
CNC(=O)Nc1ccc(OCC(O)CNC(C)C)c(Br)c1 (centres undefined) | 63% | 0.033 mg/kg
CNC(=O)Nc1ccc(OCC(O)CNC(C)C)cc1 (centres undefined) | 29% | 0.07 mg/kg
C=CCc1cc(NC(=O)NCC)ccc1OCC(O)CNC(C)C (centres undefined) | 68% | 0.18 mg/kg
CNC(=O)Nc1ccc(OCC(O)CNC(C)C)c(I)c1 (centres undefined) | 33% | 0.1 mg/kg
CCNC(=O)Nc1ccc(OCC(O)CNC(C)C)c(O)c1 (centres undefined) | 15% | 0.521 mg/kg
CNC(=O)Nc1ccc(OCC(O)CNC(C)(C)C)cc1 (centres undefined) | 0% | 0.074 mg/kg
CC(C)NCC(O)COc1ccc(NC(=O)NC2CCCCC2)cc1Cl (centres undefined) | 14% | 0.252 mg/kg
CCNC(=O)Nc1ccccc1OCC(O)CNC(C)C (centres undefined) | 103% | 3.24 mg/kg
C=CCNC(=O)Nc1ccc(OCC(O)CNC(C)C)c(Cl)c1 (centres undefined) | 43% | 0.131 mg/kg

Compound | inhibition (INH) (Felis catus [1]) | ED50 (Felis catus [2])
CC(C)(C)NCC(O)COc1ccc(NC(N)=O)cc1 (centres undefined) | 0% | 0.101 mg/kg
CCNC(=O)Nc1ccc(OCC(O)CNC(C)C)c(C)c1 (centres undefined) | 27% | 0.234 mg/kg
CNC(=O)Nc1ccc(OCC(O)CNC(C)(C)C)c(Cl)c1 (centres undefined) | 52% | 0.025 mg/kg
CCCCNC(=O)Nc1ccc(OCC(O)CNC(C)(C)C)c(Cl)c1 (centres undefined) | 0% | 0.008 mg/kg
CCNC(=O)Nc1ccc(OCC(O)CNC(C)C)cc1 (centres undefined) | 0% | 0.427 mg/kg
CCNC(=O)Nc1ccc(OCC(O)CNC(C)C)c(Cl)c1 (centres undefined) | 0% | 0.188 mg/kg
C=CCc1cc(NC(=O)NCCC)ccc1OCC(O)CNC(C)C (centres undefined) | 15% | 0.213 mg/kg
CCCNC(=O)Nc1ccc(OCC(O)CNC(C)C)c(I)c1 (centres undefined) | 100% | 0.077 mg/kg
CCCCNC(=O)Nc1ccc(OCC(O)CNC(C)C)cc1 (centres undefined) | 0% | 0.416 mg/kg
CCCNC(=O)Nc1ccc(OCC(O)CNC(C)(C)C)cc1 (centres undefined) | 0% | 0.033 mg/kg
Cc1cc(NC(=O)NC(C)C)ccc1OCC(O)CNC(C)(C)C (centres undefined) | 5% | 0.049 mg/kg
Cc1cc(NC(=O)NC(C)C)ccc1OCC(O)CNC(C)C (centres undefined) | 57% | 0.438 mg/kg
C=CCNC(=O)Nc1ccc(OCC(O)CNC(C)C)cc1 (centres undefined) | 70% | 0.262 mg/kg
C=CCc1cc(NC(=O)NCC)ccc1OCC(O)CNC(C)(C)CO (centres undefined) | 50% | 0.224 mg/kg
CCCc1cc(NC(=O)NC)ccc1OCC(O)CNC(C)(C)C (centres undefined) | 7% | 0.093 mg/kg
CCNC(=O)Nc1ccc(OCC(O)CNC(C)(C)C)c(C)c1 (centres undefined) | 58% | 0.057 mg/kg
CCNC(=O)Nc1ccc(OCC(O)CNC(C)(C)C)c(CC)c1 (centres undefined) | 2% | 0.08 mg/kg
CCNC(=O)Nc1ccc(OCC(O)CNC(C)C)c(SC)c1 (centres undefined) | 32% | 0.198 mg/kg
CCCNC(=O)Nc1ccc(OCC(O)CNC(C)(C)C)c(C)c1 (centres undefined) | 0% | 0.044 mg/kg
CCNC(=O)Nc1ccc(OCC(O)CNC(C)(C)C)cc1 (centres undefined) | 34% | 0.201 mg/kg
CNC(=O)Nc1ccc(OCC(O)CNC(C)C)c(C(C)=O)c1 (centres undefined) | 43% | 0.395 mg/kg

Compound | inhibition (INH) (Felis catus [1]) | ED50 (Felis catus [2])
CC(C)NCC(O)COc1ccc(NC(N)=O)cc1 (centres undefined) | 20% | 0.631 mg/kg
CCCCCCNC(=O)Nc1ccc(OCC(O)CNC(C)C)c(C(C)=O)c1 (centres undefined) | 0% | 0.182 mg/kg
CCCCCCCCNC(=O)Nc1ccc(OCC(O)CNC(C)(C)C)c(C)c1 (centres undefined) | 11% | 0.08 mg/kg
CCCCNC(=O)Nc1ccc(OCC(O)CNC(C)C)c(C)c1 (centres undefined) | 0% | 0.046 mg/kg
CCCCCCNC(=O)Nc1ccc(OCC(O)CNC(C)(C)C)c(C)c1 (centres undefined) | 50% | 0.03 mg/kg
CC(C)(C)NCC(O)COc1ccc(NC(=O)Nc2ccc(Cl)cc2)cc1 (centres undefined) | 39% | 0.403 mg/kg
CCCCCCNC(=O)Nc1ccc(OCC(O)CNC(C)C)cc1 (centres undefined) | 0% | 0.274 mg/kg
CCCCNC(=O)Nc1ccc(OCC(O)CNC(C)(C)C)cc1 (centres undefined) | 0% | 0.048 mg/kg
CC(C)NCC(O)COc1cccc2ccccc12 (centres undefined) [PROPRANOLOL] | 85% | 0.062 mg/kg
C=CCNC(=O)Nc1ccc(OCC(O)CNC(C)C)c(C)c1 (centres undefined) | 12% | 0.107 mg/kg
CCNC(=O)Nc1ccc(OCC(O)CNC(C)(C)C)c(I)c1 (centres undefined) | 6% | 0.023 mg/kg
CCCCCCCCNC(=O)Nc1ccc(OCC(O)CNC(C)C)c(C)c1 (centres undefined) | 28% | 0.169 mg/kg
CC(C)NC(=O)Nc1ccc(OCC(O)CNC(C)(C)C)cc1 (centres undefined) | 24% | 0.095 mg/kg
C=CCNC(=O)Nc1ccc(OCC(O)CNC(C)(C)C)c(Cl)c1 (centres undefined) | 19% | 0.022 mg/kg
CCCCCCNC(=O)Nc1ccc(OCC(O)CNC(C)(C)C)cc1 (centres undefined) | 30% | 0.094 mg/kg
C=CCNC(=O)Nc1ccc(OCC(O)CNC(C)(C)C)c(C)c1 (centres undefined) | 32% | 0.045 mg/kg
CNC(=O)Nc1ccc(OCC(O)CNC(C)C)c(C)c1 (centres undefined) | 32% | 0.17 mg/kg
CCCNC(=O)Nc1ccc(OCC(O)CNC(C)C)c(C)c1 (centres undefined) | 59% | 0.061 mg/kg
CCNC(=O)Nc1ccc(OCC(O)CNC(C)C)c(OCC)c1 (centres undefined) | 41% | 0.295 mg/kg
CNC(=O)Nc1ccc(OCC(O)CNC(C)C)c(Cl)c1 (centres undefined) | 26% | 0.104 mg/kg

— ChEMBL document CHEMBL3244247, “Beta-Adrenergic blocking agents. 15. 1-Substituted ureidophenoxy-3-amino-2-propanols” (1977)
